# Assay results from PubChem BioAssay AID588658 (The Scripps Research Institute Molecular Screening Center, 2011).
# Legend:
# [1] = target: Mitogen-activated protein kinase 14 (Homo sapiens) (UniProt Q16539); assay: phospho-p38 level change, either direction, late-stage follow-up, counter-screen for KLF5 inhibitor project, HT29 cells, chemiluminescent western blot, powder samples (AID 588658); conditions: HT29 cells, phospho-p38 western blot, 24 h; at 10 µM; stronger effect = higher value
# [2] = tested on: HT29 cells, phospho-p38 western blot, 24 h; assay: as above; conditions: measured here: phospho-p38 fold change vs DMSO; at 10 µM
# Mitogen-activated protein kinase 14 (Homo sapiens), sequence (Q16539 whole entry, looked up): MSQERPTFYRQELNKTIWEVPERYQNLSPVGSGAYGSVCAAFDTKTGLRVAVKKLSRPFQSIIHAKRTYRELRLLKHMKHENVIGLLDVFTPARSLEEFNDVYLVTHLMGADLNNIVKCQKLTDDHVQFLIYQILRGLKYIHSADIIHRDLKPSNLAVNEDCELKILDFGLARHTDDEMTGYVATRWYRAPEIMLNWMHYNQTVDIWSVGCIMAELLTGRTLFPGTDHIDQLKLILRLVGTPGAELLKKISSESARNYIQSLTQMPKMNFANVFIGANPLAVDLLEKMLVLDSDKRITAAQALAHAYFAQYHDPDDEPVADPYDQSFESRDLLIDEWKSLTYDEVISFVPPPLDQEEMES
inhibition [1] [%],SMILES,fold change [2]
-285,CN(C(=O)CNC(=O)/C=C/c1cccc(Cl)c1)C1CCS(=O)(=O)C1 (stereo unspecified),3.85
-293,CN(C(=O)CNC(=O)/C=C/c1cccc(Cl)c1)C1CCS(=O)(=O)CC1,3.93
-85.3,CN(C(=O)COC(=O)/C=C/c1cccc([N+](=O)[O-])c1)C1CCS(=O)(=O)C1 (stereo unspecified),1.85
